Laboratory results published in patent US20230228744A1, “DRY EYE DISEASE BIOMARKERS AND THEIR USE FOR TREATMENT” (Aldeyra Therapeutics, Inc., priority 2020, published 2023).

Key:
[1] = test system: RASP (reactive aldehyde species); assay: In vitro RASP elimination by reproxalap; type: biochemical; settings: reproxalap at equimolar concentrations
Text: Regarding the use of tear RASP levels as a clinical endpoint, it is important to note that this is (to date) unprecedented. The FDA has not agreed to the use of RASP before as a clinical endpoint. In this regard, we have reached agreement with the US Food and Drug Administration (FDA) for the use of RASP (reactive aldehyde species) as an objective sign for the treatment of dry eye disease. RASP are pre-cytokine pro-inflammatory mediators that are elevated in the tears of patients with dry eye disease, and correlate with dry eye disease symptoms and signs. […] In in vitro studies, RASP were eliminated within 60 to 90 minutes when exposed to reproxalap at equimolar concentrations. […] The use of RASP as a trial endpoint represents the first novel objective sign for the treatment in dry eye disease in over a decade.

[2] = test system: subjects with dry eye disease; assay: Phase 2/3 (TRANQUILITY) run-in cohort, dry eye signs and symptoms (environmental dosing and dry eye chamber); type: in vivo, human
Experimental: Changes over 24 hours after the first dose on Day 1 and changes over 90 minutes in the CAE will be assessed via mixed effect model for repeated measures (MMRM) of change from baseline (pre-dose Day 1), with baseline score as a covariate, and time and test article group as factors. For assessments that include both eyes, eye will be added as a factor.
Schirmer's Test will be assessed via MMRM of change from baseline (screening), with baseline score as a covariate, and pre/post dose, eye, and test article group as factors.
This study is a Phase 2/3, multi-center, randomized, double-masked, parallel design, vehicle-controlled trial designed to evaluate the efficacy and safety of 0.25% Reproxalap Ophthalmic Solution compared to vehicle in subjects with dry eye disease. Approximately twenty subjects will be enrolled in the Initial Cohort, and approximately 300 subjects will be enrolled in the Main Cohort. Male and female subjects at least 18 years of age with a subject-reported history of dry eye disease in both eyes and meeting all other eligibility criteria will be randomized to receive reproxalap or vehicle in a 1:1 ratio (approximately 150 subjects in each treatment group).
This study uses a challenge-model of dry eye disease known as a “dry eye chamber.” Challenge-model trials utilizing a controlled chamber are an FDA accepted design for pivotal endpoints. See, for example, FDA published “Dry Eye: Developing Drugs for Treatment” draft guidance; December 2020.
Dry eye chambers control relative humidity, temperature, airflow, and visual tasking in order to stress the ocular surface. Chambers simulate a “bad day” scenario in the life of a dry eye disease sufferer. Trial designs utilizing chambers are able to confirm the utility of drugs with rapid onset of action during an acute ocular surface challenge.
Secondary Endpoints: • Visual analog scale eye dryness score assessed over 24 hours after first dose on Day 1, and over 90 minutes in CAE® (Key Secondary Symptom Endpoint) • Ora Calibra® Ocular Discomfort Scale assessed over 24 hours after first dose on Day 1, and over 90 minutes in CAE® • Ocular Discomfort & 4-Symptom Questionnaire assessed over 24 hours after first dose on Day 1, and before and after CAE® • Ora Calibra® Conjunctival Allergen Challenge Ocular Itching Scale assessed over 24 hours after first dose on Day 1, and before and after CAE® • Schirmer's Test change from baseline before and after the final dose on Day 1 • Change in tear RASP levels before and after Dose 1 and 2 on Day 1 and Dose 3 on Day 2. Conjunctival redness over 24 hours after first dose on Day 1.
Visit 1 (Day −14 −16/+2, Screening) • Informed Consent and HIPAA • Demographics (e.g. gender, date of birth, race, ethnicity) • Medical/Medication & Ocular History • Urine Pregnancy Test (as needed) • Symptom Questionnaires: • a. Ocular Discomfort & 4-Symptom Questionnaire • b. Ora Calibra® Ocular Discomfort Scale • c. Ocular Dryness Visual Analog Scale • d. Ora Calibra® Conjunctival Allergen Challenge Ocular Itching Scale • Visual Acuity (ETDRS) • Slit Lamp Biomicroscopy with Conjunctival Redness assessment • Fluorescein Staining using the Ora Calibra® Corneal and Conjunctival Staining Scale • Inclusion/Exclusion Criteria Review • In-Office Vehicle Instillation by trained site staff (within 10 minutes prior to CAE® entry) • CAE® Exposure (90 minutes, vehicle administration at 45 minutes) with: • a. Ocular Dryness Visual Analog Scale every 5 minutes • b. Ora Calibra® Ocular Discomfort Scale every 5 minutes • c. Conjunctival Redness Photography at 0, 5, 10, 15, 20, 30, 45 (before 45-minute dose), 50, 55, 60, 65, 75, 90 minutes (+/−2 minutes) via digital photography • Slit Lamp Biomicroscopy with Conjunctival Redness assessment • Schirmer Test • Intraocular Pressure • Dilated Exam • Schedule for Visit 2 […]

[3] = Day 1, 24 hours of QID dosing, N = 12, vehicle +0.1, P 0.006

CC(C)(O)c1nc2ccc(Cl)cc2cc1N [reproxalap, Reproxalap]
time to elimination of RASP [1]: 60 to 90 min
Change From Baseline, OD4S: Dryness (0-5) [2, 3]: −1.2
Change From Baseline, OD4S: Grittiness (0-5) [2, 3]: −1.1
Change From Baseline, OD4S: Discomfort (0-5) ([2]; Day 1, 24 hours of QID dosing, N = 12, vehicle +0.4, P 0.003): −0.7
Change From Baseline, Ocular Discomfort Scale (0-4) ([2]; Day 1, 24 hours of QID dosing, N = 12, vehicle +0.4, P 0.07): −0.7
Change From Baseline, OD4S: Sting (0-5) ([2]; Day 1, 24 hours of QID dosing, N = 12, vehicle +0.4, P 0.23): −0.1
Change From Baseline, OD4S: Burn (0-5) ([2]; Day 1, 24 hours of QID dosing, N = 12, vehicle +0.8, P 0.07): −0.1
Change From Baseline, Schirmer's Test ([2]; Day 1, improvement after a single dose, N = 12, vehicle +1.3, P 0.30): +3.4 mm
Change From Baseline, VAS Dryness (0-100) ([2]; after environmental dosing, Day 1, 24 hours of QID dosing, 0.25% reproxalap, N = 12, vehicle +2, P 0.003): −26
onset of acute improvements in ocular symptoms and objective sign after administration ([2]; dry eye chamber): within minutes
Ocular Discomfort Score vs vehicle ([2]; dry eye chamber, run-in cohort, p<0.0001): statistically significant improvement over vehicle
VAS Ocular Dryness vs vehicle ([2]; dry eye chamber, run-in cohort, p=0.001): statistically significant improvement over vehicle
ocular redness vs vehicle ([2]; dry eye chamber, run-in cohort, p=0.03): statistically significant improvement over vehicle
